According to patent publication US20260209220A1, “SUBSTITUTED TETRAHYDROPYRROLO-PYRIDINONE COMPOUNDS AND THEIR USE IN TREATING MEDICAL CONDITIONS” (Karuna Therapeutics, Inc., priority 2022, published 2026):

Assays:
rM4 receptors = biological target: T1, rM4 receptors (Rattus norvegicus, UniProt P08485); experiment: Rat M4 PAM PERK assay (CHO cells, TR-FRET, with EC20 acetylcholine); assay type: cell-based
T1 construct: expressed in transfected cells; host or cells: CHO cells
T1 sequence (P08485 1-478): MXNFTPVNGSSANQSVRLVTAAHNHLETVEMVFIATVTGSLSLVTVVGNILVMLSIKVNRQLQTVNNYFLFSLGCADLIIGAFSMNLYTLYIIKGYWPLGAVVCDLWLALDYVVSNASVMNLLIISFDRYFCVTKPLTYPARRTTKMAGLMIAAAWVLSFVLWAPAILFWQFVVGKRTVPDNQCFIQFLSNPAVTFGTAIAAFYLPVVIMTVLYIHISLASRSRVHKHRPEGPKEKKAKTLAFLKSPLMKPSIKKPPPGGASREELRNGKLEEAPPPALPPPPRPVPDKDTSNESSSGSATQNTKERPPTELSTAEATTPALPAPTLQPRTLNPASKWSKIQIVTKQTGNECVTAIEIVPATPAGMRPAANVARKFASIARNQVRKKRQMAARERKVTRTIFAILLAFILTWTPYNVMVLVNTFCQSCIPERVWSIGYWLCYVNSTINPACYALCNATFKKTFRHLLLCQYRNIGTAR
In short: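 CHO cells expressing human or rat M4, serum-starved 4 h, then given compound (10-point, 10 μM top, ½-log) with EC20 acetylcholine (10 nM final) for 5 min at 37 °C. Lysates assayed for phospho-ERK by TR-FRET after 2 h detection at RT.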

human M4 receptor = biological target: T2, human M4 receptor (Homo sapiens, UniProt P08173); experiment: M4 GTPγS PAM assay (CHO-K1 membranes, 35S-GTP binding, with EC20 acetylcholine); assay type: biochemical; details: with EC20 acetylcholine (40 nM)
T2 construct: expressed in transfected cells; host or cells: CHO-K1 cells (membranes)
T2 sequence (P08173 1-479): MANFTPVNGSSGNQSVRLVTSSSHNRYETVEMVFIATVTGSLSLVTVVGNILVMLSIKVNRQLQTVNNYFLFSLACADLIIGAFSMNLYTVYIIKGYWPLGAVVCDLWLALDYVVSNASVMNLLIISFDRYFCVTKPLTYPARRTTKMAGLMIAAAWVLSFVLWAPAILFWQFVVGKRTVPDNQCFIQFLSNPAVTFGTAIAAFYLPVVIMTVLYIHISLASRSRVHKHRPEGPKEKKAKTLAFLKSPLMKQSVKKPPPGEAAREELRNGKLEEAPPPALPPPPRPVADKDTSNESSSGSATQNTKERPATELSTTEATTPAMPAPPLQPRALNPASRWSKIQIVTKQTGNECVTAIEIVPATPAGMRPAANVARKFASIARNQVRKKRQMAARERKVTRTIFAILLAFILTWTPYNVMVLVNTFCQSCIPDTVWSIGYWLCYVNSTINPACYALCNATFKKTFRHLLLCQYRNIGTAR
In short: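 Membranes from CHO-K1 cells stably expressing human M4 ([…]) in 20 mM HEPES, 10 mM MgCl2, 100 mM NaCl, with 0.1 μM GDP final, were preincubated with compound 10-15 min at RT. Acetylcholine at EC20 (40 nM final) was added for 10-15 min, then 0.4 nM 35S-GTP solution for 1 h at RT. Filter-bound radioactivity was counted.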

Structure (SMILES) | EC50 (rM4 receptors) | EC50 (human M4 receptor)
Cc1c2c(n(C)c(=O)c1C)CN(C(=O)CC1CN(c3ccnc(C(F)(F)F)c3)C1)C2 [Compound I-42, 1,3,4-Trimethyl-6-(2-(1-(2-(trifluoromethyl)pyridin-4-yl)azetidin-3-yl)acetyl)-1,5,6,7-tetrahydro-2H-pyrrolo[3,4-b]pyridin-2-one] | 0.05 to 0.2 µM | < 0.05 µM
Cc1cc(=O)n(C)c2c1CN(C(=O)CC1CN(c3cc(F)cc(C4CC4)c3)C1)C2 [Compound I-4] | 0.05 to 0.2 µM | < 0.05 µM
Cc1c2c(n(C)c(=O)c1F)CN(C(=O)CC1CN(c3ccc(C4CC4)c(F)c3)C1)C2 [Compound I-88] | < 0.05 µM | < 0.05 µM
Cc1cc(=O)n(C)c2c1CN(C(=O)CC1CN(c3cccc(F)c3F)C1)C2 [Compound I-14] | 0.2 to 1 µM | 0.05 to 0.2 µM
